What all share (assay): growth of human tumour cells (NCI), 48 h
For assay [1], the system named is SW-620.
Assay [2] concerns HT-29.
The test system of assay [3] is OVCAR-3.
Assay [4] concerns A498.
The test system of assay [5] is 786-0.
In assay [6] the test system is NCI-H522.
The subject of assay [7] is EKVX.
Assay [8] has as its system NCI/ADR-RES.
The subject of assay [9] is DU-145.
Assay [10] deals with SNB-75.
Assay [11] has as its system CCRF-CEM.
For assay [12], the system named is SR.
Assay [13] has as its system MDA-MB-231.
The test system of assay [14] is SNB-19.
The test system of assay [15] is RPMI-8226.
Assay [16] deals with HOP-92.
For assay [17], the system named is HCT-116.
Assay [18] has as its system SK-MEL-28.
The subject of assay [19] is HCT-15.
The subject of assay [20] is MDA-MB-435.

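Cells were grown in 96-well plates and exposed to each compound for 48 hours at five concentrations; endpoints were interpolated linearly between bracketing concentrations, or set to the highest concentration if not reached. At the GI50, growth is halved.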 Activity calls are given as the source filed them. Rule as the data show it: active = GI50 up to about 1.1 µM and inactive = higher. A value given as a limit tells only on which side of the number the result lay.

On to `CSC1(SC)N2Cc3ccccc3N=C2C1(c1ccccc1)c1ccccc1`, for which the GI50 in assay [1] is 13 µM (inactive); in [2], 11.6 µM (inactive); in assay [3], 6.4 µM (inactive); in [4], 15.7 µM (inactive); in assay [5], 22.5 µM (inactive); in [6], 5.96 µM (inactive). The GI50 in assay [7] was 6.67 µM (inactive); in [8] it was 16.4 µM (inactive); in [9], 19.5 µM (inactive); in [10], > 100 µM (inactive); in assay [11], 8.73 µM (inactive); in assay [12], 1.95 µM (inactive). Further, the GI50 in [13] was 26.7 µM (inactive); in assay [14], > 48.3 µM (inactive); in [15], 5.38 µM (inactive); in [16] it was 4.12 µM (inactive); in [17], 6.18 µM (inactive); in [18], 38.1 µM (inactive). The GI50 was 12.1 µM in assay [19] and 4.01 µM (inactive) in assay [20].

Consider `C=COC(=O)N[C@H]1CCc2cc(OC)c(OC)c(OC)c2-c2ccc(SC)c(=O)cc21`, for which the GI50 in assay [1] is < 0.0286 µM (active); in assay [2], < 0.01 µM (active); in assay [3], < 0.01 µM (active); in assay [4] it was < 0.01 µM (active); in [5], < 0.01 µM (active); in assay [6], < 0.01 µM (active). Further, the GI50 is 8.43 µM (inactive) in assay [7]; < 0.01 µM (active) in assay [8]; < 0.01 µM (active) in assay [9]; 0.0578 µM (active) in [10]; < 0.01 µM (active) in [11]; < 0.01 µM (active) in assay [12]. Also, the GI50 in [13] is < 0.01 µM (active); in assay [14], 0.0101 µM (active); in assay [15] it was < 0.01 µM (active); in [16], < 0.01 µM (active); in assay [17] it was < 0.01 µM (active); in [18], 1.36 µM (inactive). Besides, the GI50 is less than 0.01 µM in assay [19] and < 0.01 µM (active) in [20].

Turning to `COC(=O)C1=C(C)NC(C)=C([N+](=O)[O-])C1c1cccc(NO)c1` (stereo not given), the GI50 in assay [1] was 4.17 µM (inactive); in assay [2] it was 2.86 µM (inactive); in assay [3], 3.9 µM (inactive); in assay [4], 6.24 µM (inactive); in [5], 4.48 µM (inactive); in [6] it was 3.67 µM (inactive). In addition, the GI50 in assay [7] is 4.34 µM (inactive); in assay [8], 4.16 µM (inactive); in assay [9] it was 6.67 µM (inactive); in assay [10], 6.89 µM (inactive); in assay [11], 2.34 µM (inactive); in assay [12], 2.53 µM (inactive). In addition, the GI50 in [13] was 3.64 µM (inactive); in [14] it was 6.65 µM (inactive); in [15], 2.51 µM (inactive); in assay [16], 3.6 µM (inactive); in [17], 2.37 µM (inactive); in assay [18], 4.92 µM (inactive). Also, the GI50 in assay [19] was 2.84 µM; in assay [20], 1.98 µM (inactive).

In the case of `O=C1O[C@H]2C3C4CCC(C4[C@@H]2I)[C@H]13` (stereo not given in full), the GI50 in assay [1], in assay [2], in assay [3], in assay [4], in [5] and in assay [6] was > 100 µM (inactive) each time. Moreover, the GI50 was > 100 µM (inactive) in [7]; > 100 µM (inactive) in assay [8]; > 100 µM (inactive) in assay [9]; 60.3 µM (inactive) in assay [10]; > 100 µM (inactive) in assay [11]; > 100 µM (inactive) in assay [12]. Also, the GI50 in assay [13], in [14], in [15], in assay [16], in assay [17] and in assay [18] was > 100 µM (inactive) in each case. In addition, the GI50 was greater than 100 µM in assay [19] and > 100 µM (inactive) in assay [20].

For `CS(=O)(=O)Nc1ccc2ccccc2c1-c1c(NS(C)(=O)=O)ccc2ccccc12`, the GI50 was > 25 µM (inactive) in assay [1]; > 25 µM (inactive) in assay [2]; > 25 µM (inactive) in [3]; > 25 µM (inactive) in assay [4]; > 15.5 µM (inactive) in [5]; > 25 µM (inactive) in [6]. The GI50 in assay [7] was > 25 µM (inactive); in assay [8] it was > 25 µM (inactive); in [9] it was > 25 µM (inactive); in assay [10], > 19.1 µM (inactive); in assay [11], > 25 µM (inactive); in assay [12], > 25 µM (inactive). The GI50 in assay [13] is > 25 µM (inactive); in assay [14], > 25 µM (inactive); in assay [15], > 25 µM (inactive); in [16], > 25 µM (inactive); in assay [17], > 18.6 µM (inactive); in assay [18] it was > 25 µM (inactive). Also, the GI50 in assay [19] is greater than 25 µM; in [20] it was > 25 µM (inactive).

On to `CN(N=O)N1C(=O)SCC(c2ccccc2)(c2ccccc2)C1=O`, for which the GI50 in [1] was 38.7 µM (inactive); in assay [2], 33.3 µM (inactive); in assay [3] it was 37.6 µM (inactive); in assay [4] it was > 100 µM (inactive); in assay [5], 46.6 µM (inactive); in assay [6], 23.3 µM (inactive). The GI50 in assay [7] was 34.7 µM (inactive); in assay [8] it was 34.4 µM (inactive); in [9], 91 µM (inactive); in assay [10], 25.6 µM (inactive); in assay [11], 31.1 µM (inactive); in assay [12], 37.5 µM (inactive). The GI50 in assay [13] was 37.3 µM (inactive); in assay [14] it was 57.9 µM (inactive); in assay [15] it was 25.8 µM (inactive); in [16], 38.9 µM (inactive); in [17], 40.4 µM (inactive); in [18], 36.8 µM (inactive). The GI50 in assay [19] was 41.7 µM; in assay [20] it was 24.3 µM (inactive).

Turning to `Cc1ccc(/C=N/Nc2ccccn2)s1`, the GI50 was > 100 µM (inactive) in assay [1]; > 67.8 µM (inactive) in [2]; > 55.7 µM (inactive) in assay [3]; > 100 µM (inactive) in assay [4]; > 54.7 µM (inactive) in [5]; 12.5 µM (inactive) in assay [6]. The GI50 in assay [7] is > 72.8 µM (inactive); in assay [8] it was > 40.6 µM (inactive); in assay [9] it was > 100 µM (inactive); in assay [10], 36.7 µM (inactive); in assay [11], > 100 µM (inactive); in [12] it was > 100 µM (inactive). Besides, the GI50 in [13] is > 41.1 µM (inactive); in assay [14], > 100 µM (inactive); in assay [15] it was > 100 µM (inactive); in assay [16] it was > 100 µM (inactive); in [17] it was > 44.7 µM (inactive); in assay [18] it was > 100 µM (inactive). Moreover, the GI50 in assay [19] is greater than 72.6 µM; in assay [20], > 100 µM (inactive).

For the compound `CC(=O)c1ccc2c(c1)CC1(C2)Cc2cc3c(cc2C1=O)CCC3` (stereo not given), the GI50 in assay [1] is 32.6 µM (inactive); in [2], 15.7 µM (inactive); in assay [3] it was 16.1 µM (inactive); in assay [4], 19.5 µM (inactive); in [5], 19.3 µM (inactive); in assay [6], 22.7 µM (inactive). The GI50 in assay [7] was 25.2 µM (inactive); in [8], 12.2 µM (inactive); in [9] it was 24.3 µM (inactive); in [10], 15.6 µM (inactive); in [11] it was 13.3 µM (inactive); in assay [12] it was 3.04 µM (inactive). In addition, the GI50 in assay [13] was 20.6 µM (inactive); in assay [14] it was 58.9 µM (inactive); in assay [15] it was 11.1 µM (inactive); in assay [16], 25.9 µM (inactive); in assay [17] it was 17.5 µM (inactive); in [18], 24.6 µM (inactive). For the same compound, the GI50 in [19] is 29 µM; in [20] it was 17 µM (inactive).

In the case of `COc1nc(C(Cl)(Cl)Cl)c(Cl)c(OC)c1Cl` [PENCLOMEDINE], the GI50 is 39.4 µM (inactive) in assay [1]; 14.6 µM (inactive) in assay [2]; 38.8 µM (inactive) in assay [3]; 52.6 µM (inactive) in assay [4]; 6.59 µM (inactive) in assay [5]; 33.1 µM (inactive) in [6]. Further, the GI50 in [7] is 40.8 µM (inactive); in assay [8], 24.3 µM (inactive); in assay [9] it was 38.7 µM (inactive); in assay [10], 7.76 µM (inactive); in assay [11], 32.5 µM (inactive); in [12], 37.1 µM (inactive). The GI50 in assay [13] is 38.3 µM (inactive); in assay [14], 27.3 µM (inactive); in [15], 24.1 µM (inactive); in assay [16], 28.2 µM (inactive); in [17], 41.9 µM (inactive); in [18], 39.7 µM (inactive). The results for the GI50 in assay [19] and in [20] were 40.6 µM and 42.5 µM (inactive), respectively.

As to `CC(C)c1cc(C(C)C)c(P2(=O)CC3C(Cl)(Cl)C3(C)C2)c(C(C)C)c1` (stereo not given), the GI50 is 7.55 µM (inactive) in assay [1]; 9.33 µM (inactive) in assay [2]; 7.57 µM (inactive) in [3]; 13.8 µM (inactive) in assay [4]; 6.22 µM (inactive) in assay [5]; 2.09 µM (inactive) in assay [6]. For the same compound, the GI50 is 15.8 µM (inactive) in [7]; 6.04 µM (inactive) in [8]; 14.5 µM (inactive) in [9]; 11.6 µM (inactive) in [10]; 2.24 µM (inactive) in [11]; 1.74 µM (inactive) in assay [12]. In addition, the GI50 was 11.4 µM (inactive) in [13]; 7.91 µM (inactive) in assay [14]; 3.24 µM (inactive) in [15]; 12.2 µM (inactive) in assay [16]; 7.29 µM (inactive) in assay [17]; 15.8 µM (inactive) in assay [18]. The GI50 in [19] was 9.53 µM; in [20], 9.73 µM (inactive).

Source of the values: ChEMBL document CHEMBL1201862, “PubChem BioAssay data set” (2004).
